From publication PMC12461739, “Multi-targeted azacoumarin–cyanocinnamate hybrids induce G2/M arrest and apoptosis via tubulin, and COX-2/VEGFR modulation: insights from in vitro mechanistic basis and in vivo validation” (RSC Medicinal Chemistry, 2025)
Like-named read-outs stand apart in the source and are kept apart here.

Assays:
MCF-7 cells = test: MTT antiproliferative assay, MCF-7; assay type: cell-based, human; settings: for IC50: MTT, 48 h treatment, read-out: IC50, antiproliferative activity toward MCF-7; for fold reduction of cytotoxic activity after acetylation of the hydroxyl group: MCF-7, vs parent compound (7 or 6a)
Experimental: (§1) The cytotoxic effects of the synthesized compounds were evaluated using the MTT assay. MCF-7, MDA-MB 231 (human breast cancer), and MCF-10A (non-tumorigenic breast epithelial) cells were seeded (1–3 × 10^4 cells per well) and incubated for 24 hours at 37 °C in a humidified atmosphere containing 5% CO2.[74] Following incubation, cells were treated with serial dilutions of the test compounds prepared in DMSO. The final concentration of DMSO in all wells, including controls, was maintained below 0.5% v/v to avoid solvent-related cytotoxicity. Doxorubicin was used as a positive control for comparison of antiproliferative activity. Following 48 hours of treatment, the culture medium was gently removed, and each well received 20 μL of MTT reagent (5 mg mL^−1 in phosphate-buffered saline). The plates were incubated at 37 °C for 4 hours to facilitate the enzymatic reduction of MTT into formazan by metabolically active cells. After incubation, the solution was discarded, and 100 μL of dimethyl sulfoxide was added. The absorbance of each well was measured at 570 nm using a microplate spectrophotometer. Cell viability was determined by comparing absorbance values to those of the untreated controls and expressed as a percentage. GraphPad Prism software was used to plot dose–response curves and calculate IC50 values.

MDA-MB 231 cells = test: MTT antiproliferative assay, MDA-MB 231; assay type: cell-based, human; settings: for IC50: Homo sapiens, MDA-MB-231, 48 h, MTT, 48 h treatment, read-out: IC50, antiproliferative activity toward MDA-MB 231
Experimental: as §1

[1] = FRAP (ferric reducing antioxidant power) assay; settings: 37 °C, 60 min
Experimental: The resulting Fe^2+ forms a colored complex with the FRAP chromogenic probe, which can be quantitatively measured. The reaction mixture was prepared by combining FRAP assay buffer, FRAP probe, and FeCl3 solution as per the manufacturer's protocol. […] Absorbance was measured at 594 nm using a microplate reader after incubation at 37 °C for 60 minutes. Antioxidant activity was determined by comparing the absorbance of the samples to a standard curve generated using known concentrations of the ferrous standard provided in the kit.

MCF-10A cells = test: MTT cytotoxicity assay, MCF-10A; assay type: cell-based, human
Experimental: as §1, with “MCF-7, MDA-MB 231 (human breast cancer), and MCF-10A (non-tumorigenic breast epithelial) cells were seeded (1–3 × 10^4 cells per well) and incubated for 24 hours at 37 °C in a humidified atmosphere containing 5% CO2.[74]” left out

[2] = MTT cytotoxicity assay, MCF-10A; assay type: cell-based, human; settings: human, MCF-10A non-tumorigenic breast epithelial cells, MTT, 48 h treatment, non-tumorigenic breast epithelial cells; read-out: IC50, cytotoxicity toward MCF-10A
Experimental: as §1, with “MCF-7, MDA-MB 231 (human breast cancer), and MCF-10A (non-tumorigenic breast epithelial) cells were seeded (1–3 × 10^4 cells per well) and incubated for 24 hours at 37 °C in a humidified atmosphere containing 5% CO2.[74]” left out

SMILES | IC50 (MCF-7 cells; Homo sapiens, MCF7, 48 h) | IC50 (MCF-7 cells) | IC50 (MDA-MB 231 cells) | fold improvement in cytotoxicity in MDA-MB-231 compared to MCF-7 (MDA-MB 231 cells; MDA-MB-231 vs MCF-7) | fold reduction of cytotoxic activity after acetylation of the hydroxyl group (MCF-7 cells) | IC50 [1] | selectivity index toward breast cancer cells (MCF-10A cells; MCF-10A vs MCF-7 / MDA-MB 231) | IC50 (MCF-10A cells; MTT, 48 h treatment, non-tumorigenic breast epithelial cells, read-out: IC50, cytotoxicity toward MCF-10A) | IC50 at 48 h [2]
CCOC(=O)/C(C#N)=C/c1ccc(Oc2c(C)c3cc(Br)c(O)c(Br)c3[nH]c2=O)c(OC)c1 [Compound 6a, ethyl (E)-2-cyano-3-(4-((6,8-dibromo-7-hydroxy-4-methyl-2-oxo-1,2-dihydroquinolin-3-yl)oxy)-3-methoxyphenyl)acrylate] | 26.6 ± 1.56 µM | 26.6 ± 1.56 µM | 19.6 ± 1.72 µM |  |  |  |  |  | 
CCOC(=O)/C(C#N)=C/c1cc(Br)c(Oc2c(C)c3cc(Br)c(O)c(Br)c3[nH]c2=O)c(Br)c1 [Compound 6b, ethyl (E)-2-cyano-3-(3,5-dibromo-4-((6,8-dibromo-7-hydroxy-4-methyl-2-oxo-1,2-dihydroquinolin-3-yl)oxy)phenyl)acrylate] | 112 ± 6.57 µM | 112 ± 6.57 µM | 31.1 ± 1.87 µM | ~3.6 fold |  |  |  |  | 
CCOC(=O)/C(C#N)=C/c1ccc(Oc2c(C)c3cc(Br)c(OC(C)=O)c(Br)c3[nH]c2=O)cc1 [Compound 8, ethyl (E)-3-(4-((7-acetoxy-6,8-dibromo-4-methyl-2-oxo-1,2-dihydroquinolin-3-yl)oxy)phenyl)-2-cyanoacrylate] | 17.8 ± 1.05 µM | 17.8 ± 1.05 µM | 26.9 ± 0.79 µM |  | 2.3 fold |  |  |  | 
CCOC(=O)/C(C#N)=C/c1ccc(Oc2c(C)c3cc(Br)c(OC(C)=O)c(Br)c3[nH]c2=O)c(OC)c1 [Compound 9, ethyl (E)-3-(4-((7-acetoxy-6,8-dibromo-4-methyl-2-oxo-1,2-dihydroquinolin-3-yl)oxy)-3-methoxyphenyl)-2-cyanoacrylate] | 33.4 ± 1.96 µM | 33.4 ± 1.96 µM | 44.2 ± 2.96 µM |  | 1.25 fold |  |  |  | 
O=C1O[C@H]([C@@H](O)CO)C(O)=C1O [ascorbic acid, reference compound] |  |  |  |  |  | 110 ± 4.21 µM |  |  | 
COc1cccc2c1C(=O)c1c(O)c3c(c(O)c1C2=O)C[C@@](O)(C(=O)CO)C[C@@H]3O[C@H]1C[C@H](N)[C@H](O)[C@H](C)O1 [doxorubicin, reference compound] | 12.6 ± 0.61 µM |  | 8.4 ± 0.61 µM |  |  |  | 1.3 | 16.2 ± 0.55 µM | 16.2 ± 0.55 µM
